Source: patent US10213415B2, “Compounds as opioid receptor modulators” (JANSSEN PHARMACEUTICA NV, priority 2004, dated 2019)
“And” between values parts separate entries of the source, which are not always exact repeats. Equal entries are not always repeated. Where two headings read alike, the source gives them in different places.

How the values were obtained:
[1] = test system: novel environment-stressed mice; test: In Vivo Assay-Stress-Induced Fecal Output (Fecal Output for 1 hr); parameters: species or system mouse; conditions: for Fecal Output (# pellets) cpd: novel environment-stressed mice; for response vs control in vivo at 30 mg/kg: Mus musculus, po, 1 h; for # of pellets, Compound (m) 3.0 / Fecal pellet output, Compound (% control) 3.0 / Fecal pellet output, Compound (% NES) 3.0: dose 3.0, oral; for # of pellets, Compound (m) 3.0 / Fecal pellet output, Compound (% control) 3.0 / # of pellets, Compound (m) 10.0 / Fecal pellet output, Compound (% control) 10.0 / # of pellets, Compound (m) 30.0 / Fecal pellet output, Compound (% control) 30.0: NES mice; for # of pellets, Compound (m) 3.0 / # of pellets, Compound (m) 10.0 / # of pellets, Compound (m) 30.0: fecal output 1 hr; for Fecal pellet output, Compound (% control) 3.0 / Fecal pellet output, Compound (% control) 10.0 / Fecal pellet output, Compound (% control) 30.0: vs acclimated control; for Fecal pellet output, Compound (% NES) 3.0 / Fecal pellet output, Compound (% NES) 10.0 / Fecal pellet output, Compound (% NES) 30: vs vehicle NES group; for # of pellets, Compound (m) 10.0 / Fecal pellet output, Compound (% control) 10.0 / Fecal pellet output, Compound (% NES) 10.0: dose 10.0, oral; for # of pellets, Compound (m) 30.0 / Fecal pellet output, Compound (% control) 30.0: dose 30.0, oral; for Fecal pellet output, Compound (% NES) 30: dose 30, oral
From the text: This assay evaluates the fecal output in novel environment-stressed mice to that of acclimated controls.
Methods: Adult, male, Crl:CD-1(ICR) mice, weighing ˜30-35 g were used in these studies, with a minimum of 10 mice per dose group. One group of mice was assigned as acclimated, or “non-stressed” controls. These control mice were transported from colony housing, where they were housed 3/cage in polycarbonate cages with access to food and water ad lib. to the procedure room. The mice were removed from their home cages and individually housed in 20 cm wide×20 cm deep×15 cm tall cages, equipped with a wire mesh bottom where they remained for a 16-18 hr period of acclimation to their novel environment. Mice were allowed access to food and water ad lib. during acclimation. The other groups of mice were assigned as non-acclimated, or “stressed” treatment groups. Each mouse in each group was weighed and vehicle, or test compound, was intragastrically administered by oral intubation in 0.5% methylcellulose. Mice were allowed access to water only ad lib. during the test period. After compound administrations, acclimated (control) as well as non-acclimated (stressed) mice were individually housed in a 20 cm wide×20 cm deep×15 cm tall cage, with a wire mesh bottom. An absorbant cardboard is placed beneath the cages. The number of fecal pellets excreted by each mouse was determined at hourly intervals following placement of the mice in the individual cages. Raw Data=# of fecal pellets/mouse/hr. […]

[2] = target: T1, human delta subtype 2 opioid receptor (Homo sapiens, UniProt P41143); test: Human Delta Opioid Receptor Binding Assay (CHO membranes, 3H-Naltrindole); conditions: read-out: hKi δ
T1 construct: purchased Perkin Elmer RBHODM400UA; host or cells: Chinese Hamster Ovary cells (recombinant expression)
T1 sequence (P41143 whole entry): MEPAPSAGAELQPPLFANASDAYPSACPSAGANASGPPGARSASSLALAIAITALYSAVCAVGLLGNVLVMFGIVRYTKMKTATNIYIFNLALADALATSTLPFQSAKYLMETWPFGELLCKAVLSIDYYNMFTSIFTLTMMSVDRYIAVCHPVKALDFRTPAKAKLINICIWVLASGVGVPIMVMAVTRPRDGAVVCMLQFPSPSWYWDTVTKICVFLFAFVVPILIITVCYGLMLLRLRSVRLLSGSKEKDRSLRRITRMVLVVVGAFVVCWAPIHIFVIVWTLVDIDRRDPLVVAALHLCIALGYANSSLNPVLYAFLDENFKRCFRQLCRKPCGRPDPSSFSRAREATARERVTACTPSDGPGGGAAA
Experimental: This assay is designed to test the ability of a compound to interfere with the binding of tritiated Naltrindole to the human delta subtype 2 opioid receptor. Membranes from Chinese Hamster Ovary cells expressing the human delta subtype 2 opioid receptor (Perkin Elmer #RBHODM400UA) are homogenized in assay buffer (50 mM Tris, pH 7.5 with 5 mM MgCl2) using a glass tissue grinder, Teflon pestle and a Steadfast Stirrer (Fisher Scientific). The concentration of membranes is adjusted to 100 μg/mL in assay buffer and 100 μL is dispensed into each well of the assay plate, a 96 well round bottom polypropylene plate. Compounds to be tested are solubilized in DMSO (Pierce), 10 mM, then diluted in assay buffer to 6× the desired final concentration. The ligand, ^3H-Naltrindole (Perkin Elmer #NET-1065) is also diluted in assay buffer to 6 nM. In a second 96 well round bottom polypropylene plate, known as the premix plate, 60 μL of the 6× compound is combined with 60 μL of 6 nM ^3H-Naltrindole. From this premix plate 50 μL is transferred to the assay plate containing the membranes, in duplicate. The assay plate is incubated for 30 min at room temperature. A GF/C 96 well filter plate (Perkin Elmer #6005174) is pretreated with 0.3% polyethylenimine for 30 min. The contents of the assay plate are filtered through the filter plate using a Packard Filtermate Harvester, and washed 3 times with 0.9% saline that is 4° C. The filter plate is dried, the underside sealed, and 30 μL Microscint20 (Packard #6013621) added to each well. A Topcount-NXT Microplate Scintillation Counter (Packard) is used to measure emitted energies in the range of 2.9 to 35 KeV. Results are compared to maximum binding, wells receiving no inhibitors. Nonspecific binding is determined in the presence of 1 μM unlabelled Naltrindole (Sigma #N115).

human mu opioid receptor = target: T2, human mu opioid receptor (Homo sapiens, UniProt P35372); test: Human Mu Opioid Receptor Binding Assay (CHO membranes, 3H-Damgo); conditions: read-out: hKi μ
T2 construct: purchased Perkin Elmer RBHOMM400UA; host or cells: Chinese Hamster Ovary cells (recombinant expression)
T2 sequence (P35372 whole entry): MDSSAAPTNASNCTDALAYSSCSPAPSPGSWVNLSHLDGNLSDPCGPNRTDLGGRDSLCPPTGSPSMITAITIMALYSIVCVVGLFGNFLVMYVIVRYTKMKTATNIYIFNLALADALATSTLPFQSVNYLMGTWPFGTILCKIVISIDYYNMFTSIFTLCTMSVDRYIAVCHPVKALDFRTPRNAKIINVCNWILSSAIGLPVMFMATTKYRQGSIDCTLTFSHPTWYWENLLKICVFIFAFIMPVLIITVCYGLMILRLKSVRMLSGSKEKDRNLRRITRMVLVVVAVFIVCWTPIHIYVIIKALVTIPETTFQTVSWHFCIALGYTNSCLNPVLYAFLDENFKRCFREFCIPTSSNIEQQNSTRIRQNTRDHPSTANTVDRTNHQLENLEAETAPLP
Experimental: Membranes from Chinese Hamster Ovary cells expressing the human […] opioid receptor (Perkin Elmer #RBHOMM400UA) are homogenized in assay buffer (50 mM Tris, pH 7.5 with 5 mM MgCl2) using a glass tissue grinder, Teflon pestle and a Steadfast Stirrer (Fisher Scientific). The concentration of membranes is adjusted to 300 μg/mL in assay buffer and 100 μL is dispensed into each well of the assay plate, a 96 well round bottom polypropylene plate. Compounds to be tested are solubilized in DMSO (Pierce), 10 mM, then diluted in assay buffer to 6× the desired final concentration. The ligand, ^3H-Damgo (Perkin Elmer #NET-902) is also diluted in assay buffer to 3.6 nM. In a second 96 well round bottom polypropylene plate, known as the premix plate, 60 μL of the 6× compound is combined with 60 μL of 3.6 nM ^3H-Damgo. From this premix plate 50 μL is transferred to the assay plate containing the membranes, in duplicate. The assay plate is incubated for 2 h at room temperature. A GF/C 96 well filter plate (Perkin Elmer #6005174) is pretreated with 0.3% polyethylenimine for 30 min. The contents of the assay plate are filtered through the filter plate using a Packard Filtermate Harvester, and washed 3 times with 0.9% saline that is 4° C. The filter plate is dried, the underside sealed, and 30 μL Microscint20 (Packard #6013621) added to each well. A Topcount-NXT Microplate Scintillation Counter (Packard) is used to measure emitted energies in the range of 2.9 to 35 KeV. […] Nonspecific binding is determined in the presence of 1 μM unlabelled Damgo (Tocris #1171).

[3] = 30 mg/kg oral, relative to acclimated control, 1 hr, read-out: Fecal Output cpd % control
[4] = 30 mg/kg oral, relative to novel environment stress (NES) vehicle group, 1 hr, read-out: Fecal Output cpd % NES

| Compound | Ki [2] [nM] | Ki (human mu opioid receptor) [nM] | also measured |
| --- | --- | --- | --- |
| Cc1cc(O)cc(C)c1C[C@H](N)C(=O)N(Cc1c(Cl)cccc1Cl)[C@@H](C)c1nc(-c2ccccc2)c[nH]1 [Cpd 97] | 6.3 | 19.2 | Fecal Output (# pellets) cpd ([1]; 30 mg/kg oral, 1 hr): 4.8 pellets; response vs control in vivo at 30 mg/kg [1, 3]: 65.8%; response vs control in vivo at 30 mg/kg [1, 4]: 37.2%; # of pellets, Compound (m) 3.0 [1]: 14 and 9.1; Fecal pellet output, Compound (% control) 3.0 [1]: 226.2 % control and 189.6 % control; Fecal pellet output, Compound (% NES) 3.0 [1]: 119 % NES and 90.1 % NES; # of pellets, Compound (m) 10.0 [1]: 7.5 and 10.4; Fecal pellet output, Compound (% control) 10.0 [1]: 123.0 % control and 216.7 % control; Fecal pellet output, Compound (% NES) 10.0 [1]: 64.66 % NES and 103 % NES; # of pellets, Compound (m) 30.0 [1]: 3.5 and 2.3; Fecal pellet output, Compound (% control) 30.0 [1]: 57 % control and 48 % control; Fecal pellet output, Compound (% NES) 30 [1]: 30.17 % NES and 22.77 % NES |
| Cc1cc(O)cc(C)c1C[C@H](N)C(=O)N(Cc1ccccn1)[C@@H](C)c1nc(-c2ccccc2)c[nH]1 [Cpd 93] | 9.5 | 0.9 | Fecal Output (# pellets) cpd ([1]; 30 mg/kg oral, 1 hr): 5.0 pellets; response vs control in vivo at 30 mg/kg [1, 3]: 139%; response vs control in vivo at 30 mg/kg [1, 4]: 45%; # of pellets, Compound (m) 3.0 [1]: 6.2; Fecal pellet output, Compound (% control) 3.0 [1]: 229.6 % control; Fecal pellet output, Compound (% NES) 3.0 [1]: 74.7 % NES; # of pellets, Compound (m) 10.0 [1]: 5.5; Fecal pellet output, Compound (% control) 10.0 [1]: 203.7 % control; Fecal pellet output, Compound (% NES) 10.0 [1]: 66.27 % NES; # of pellets, Compound (m) 30.0 [1]: 3.2; Fecal pellet output, Compound (% control) 30.0 [1]: 119 % control; Fecal pellet output, Compound (% NES) 30 [1]: 38.55 % NES |
| Cc1cc(C(N)=O)cc(C)c1C[C@H](N)C(=O)N(C(C)c1ccccc1)[C@@H](C)c1nc(-c2ccccc2)c[nH]1 (single isomer, unassigned) [Cpd 111] | 307 | 6.4 | Fecal Output (# pellets) cpd ([1]; 30 mg/kg oral, 1 hr): 4.4 pellets; Fecal Output cpd % control ([1]; 30 mg/kg oral, relative to acclimated control, 1 hr): 60.8%; Fecal Output cpd % NES ([1]; 30 mg/kg oral, relative to novel environment stress (NES) vehicle group, 1 hr): 42.5% |
| Cc1cc(O)cc(C)c1C[C@H](N)C(=O)N(Cc1ccoc1)[C@@H](C)c1nc(-c2ccccc2)c[nH]1 [Cpd 55] | 44 | 1.8 | Fecal Output (# pellets) cpd ([1]; 30 mg/kg oral, 1 hr): 8.3 pellets; response vs control in vivo at 30 mg/kg [1, 3]: 213%; response vs control in vivo at 30 mg/kg [1, 4]: 58.9% |
| Cc1cc(O)cc(C)c1C[C@H](N)C(=O)N(Cc1nc(-c2cccc(C(N)=O)c2)c(C)[nH]1)C(C)C [Cpd 73] | 151 | 1.9 | – |
| Cc1cc(C(N)=O)cc(C)c1C[C@H](N)C(=O)N(CCc1ccccc1)[C@H](C)c1nc(-c2ccccc2)c[nH]1 [Cpd 110] | 1400 | 191 | – |
| Cc1cc(O)cc(C)c1C[C@H](N)C(=O)N(C(C)C)[C@H](c1nc(-c2ccccc2)c[nH]1)C(C)C [Cpd 162] | 173 | 7.6 | – |
| Cc1cc(O)cc(C)c1C[C@H](N)C(=O)N(Cc1cccc(Oc2ccccc2)c1)[C@@H](C)c1nc(-c2ccccc2)c[nH]1 [Cpd 98] | 54 | 48 | – |
| Cc1cc(O)cc(C)c1C[C@H](N)C(=O)N(C(C)C)[C@@H](CC(C)C)c1nc(-c2ccccc2)c[nH]1 [Cpd 140] | 985 | 79 | – |
| Cc1cc(O)cc(C)c1CC(N)C(=O)N(Cc1ccccc1)C(C)c1nc(-c2ccc(F)cc2)c[nH]1 (stereo not drawn) [Cpd 83] | 48 | 4.67 | – |
| Cc1cc(O)cc(C)c1C[C@H](N)C(=O)N(Cc1nc(-c2cccc3ccccc23)c(C)[nH]1)C(C)C [Cpd 156] | 380 | 0.59 | – |
| Cc1cc(O)cc(C)c1C[C@H](N)C(=O)N(Cc1nc(-c2ccc(-c3ccccc3)cc2)c(C)[nH]1)C(C)C [Cpd 115] | 321 | 68 | – |
| Cc1cc(O)cc(C)c1C[C@H](N)C(=O)N(Cc1nc(-c2cc(F)ccc2F)c(C)[nH]1)C(C)C [Cpd 61] | 243 | 3 | – |
| Cc1cc(O)cc(C)c1C[C@H](N)C(=O)N(Cc1nc(-c2cccc(Cl)c2)c(C)[nH]1)C(C)C [Cpd 70] | 85 | 2.6 | – |
| Cc1cc(C(N)=O)cc(C)c1C[C@H](N)C(=O)N(Cc1nc(-c2ccccc2)c[nH]1)C(C)C [Cpd 86] | 400 | 1 | – |
| COc1ccc(-c2nc(CN(C(=O)[C@@H](N)Cc3c(C)cc(O)cc3C)C(C)C)[nH]c2C)cc1 [Cpd 125] | 237 | 8.6 | – |
| Cc1cc(O)cc(C)c1C[C@H](N)C(=O)N(Cc1nc(-c2cccc(O)c2)c(C)[nH]1)C(C)C [Cpd 68] | 59 | 0.6 | – |
| Cc1cc(O)cc(C)c1C[C@H](N)C(=O)N(Cc1cccc(Br)c1)[C@@H](C)c1nc(-c2ccccc2)c[nH]1 [Cpd 101] | 47 | 24 | – |
| Cc1cc(O)cc(C)c1C[C@H](N)C(=O)N(Cc1nc(Br)c(C)[nH]1)C(C)C [Cpd 65] | 517 | 0.36 | – |
| Cc1cc(O)cc(C)c1C[C@H](N)C(=O)N(C(C)C)[C@@H](Cc1cccc(CN)c1)c1nc(-c2ccccc2)c[nH]1 [Cpd 120] | 740 | 20.8 | – |
| Cc1cc(C(N)=O)cc(C)c1C[C@H](N)C(=O)N(Cc1ccccc1)[C@@H](C)c1nc(-c2ccc(F)cc2)c[nH]1 [Cpd 76] | 43.1 | 1.6 | – |
| Cc1cc(C(N)=O)cc(C)c1C[C@H](N)C(=O)N(Cc1ccccc1)[C@@H](C)c1nc(-c2cccc(F)c2)c[nH]1 [Cpd 59] | 120 | 5.1 | – |
| CC(C)N(C(=O)[C@@H](N)Cc1ccc(O)cc1)[C@@H](Cc1ccccc1)c1nc(-c2ccccc2)c[nH]1 [Cpd 158] | > 10000 | 0.23 | – |
| CC(=O)Oc1ccc(CN(C(=O)[C@@H](N)Cc2c(C)cc(O)cc2C)[C@@H](C)c2nc(-c3ccccc3)c[nH]2)cc1 [Cpd 88] | 16.2 | 5.8 | – |
| COc1ccccc1CN(C(=O)[C@@H](N)Cc1c(C)cc(O)cc1C)[C@@H](C)c1nc(-c2ccccc2)c[nH]1 [Cpd 96] | 14.6 | 9.7 | – |
| Cc1cc(O)cc(C)c1C[C@H](N)C(=O)N(Cc1nc(-c2ccc(S(C)(=O)=O)cc2)c(C)[nH]1)C(C)C [Cpd 62] | 69 | 2.4 | – |
| Cc1cc(O)cc(C)c1C[C@H](N)C(=O)N(C(C)C)[C@@H](C)c1nc(-c2ccc(F)cc2)c[nH]1 [Cpd 84] | 9.6 | 1.1 | – |
